Source: US8445542B2, “Methods of accelerating muscle growth, decreasing fat deposits and improving feed efficiency in livestock animals” (Bridge Pharma, Inc., priority 2006, dated 2013)

Columns and labels:
laboratory animals = assay: Neuropharmacological profile (Irwin test), repeated oral administration
livestock animals = details: Marchant-Forde et al., cited from earlier work; for tachycardia in livestock animals: 2003 and London et al. 2005
adrenergic beta-receptor = assay: Adrenergic beta-receptor stimulating activity of the isomers; details: compared with RR-ractopamine; this document and Shappell et al, 2000
Source text: J. Anim. Sci. 2000, 78: 699-708, which publication is hereby included in its entirety by reference.)

[1] = system: Airway smooth muscle tissues; assay: Airway smooth muscle contracted by carbachol; details: ongoing studies
Source text: Airway smooth muscle tissues were contracted by carbachol. The inhibitory effects of isomers, enantiomeric pairs and a racemic mixture of ractopamine are being investigated.
Test results from these functional studies verify and support the results from the receptor binding studies.

beta-3 receptors = beta-3 receptors (Homo sapiens, UniProt P13945); details: background statement; cited from earlier work
Chain of beta-3 receptors (P13945 whole entry): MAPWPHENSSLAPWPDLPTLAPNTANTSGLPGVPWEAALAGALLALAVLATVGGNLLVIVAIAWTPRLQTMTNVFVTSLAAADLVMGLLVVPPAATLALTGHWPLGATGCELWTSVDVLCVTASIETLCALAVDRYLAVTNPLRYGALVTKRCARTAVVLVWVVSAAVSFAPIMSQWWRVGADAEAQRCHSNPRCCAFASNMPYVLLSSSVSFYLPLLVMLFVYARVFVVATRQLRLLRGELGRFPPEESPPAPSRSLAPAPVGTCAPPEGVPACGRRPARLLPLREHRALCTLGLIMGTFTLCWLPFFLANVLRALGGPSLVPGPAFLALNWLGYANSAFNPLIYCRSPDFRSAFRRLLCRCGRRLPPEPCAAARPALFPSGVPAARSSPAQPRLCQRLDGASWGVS

[2] = target: adrenergic beta-3 receptors (Homo sapiens, UniProt P13945); assay: Receptor binding, beta-3 (present studies)
Chain of adrenergic beta-3 receptors (P13945 whole entry): as above

mice [3] = assay: Stress testing in mice, methodology of Aberg (U.S. Pat. No. 6,372,799)
[4] = system: adrenergic alpha-receptors; details: isolated smooth and cardiac muscle tissues of rat and guinea pig; Colbert et al. 1991; cited from earlier work
[5] = system: adrenergic beta-receptors in adipose tissue; details: animals exposed to the drug; Spurlock et al. 1994; cited from earlier work
[6] = target: adrenergic beta-1 receptors (Homo sapiens, UniProt P08588); assay: Receptor binding studies, beta-1
Chain of adrenergic beta-1 receptors (P08588 whole entry): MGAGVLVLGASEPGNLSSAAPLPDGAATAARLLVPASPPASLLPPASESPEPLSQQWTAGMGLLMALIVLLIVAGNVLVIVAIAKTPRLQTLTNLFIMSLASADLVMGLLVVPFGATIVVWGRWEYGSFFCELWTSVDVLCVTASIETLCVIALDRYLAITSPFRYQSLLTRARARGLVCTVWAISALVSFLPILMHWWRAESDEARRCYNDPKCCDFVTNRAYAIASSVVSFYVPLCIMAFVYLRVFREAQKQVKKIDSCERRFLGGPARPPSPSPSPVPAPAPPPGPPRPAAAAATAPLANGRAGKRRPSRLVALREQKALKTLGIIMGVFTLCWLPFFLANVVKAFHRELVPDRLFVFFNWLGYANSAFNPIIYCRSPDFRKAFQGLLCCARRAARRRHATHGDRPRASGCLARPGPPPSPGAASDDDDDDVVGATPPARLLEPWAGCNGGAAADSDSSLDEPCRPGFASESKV
Source text: Interesting and important advantages of receptor selectivity by RR-ractopamine were found.

[7] = target: porcine adrenergic β-2 receptors (Sus scrofa, UniProt Q28997); details: Mills et al., 2003; cited from earlier work
Chain of porcine adrenergic β-2 receptors (Q28997 whole entry): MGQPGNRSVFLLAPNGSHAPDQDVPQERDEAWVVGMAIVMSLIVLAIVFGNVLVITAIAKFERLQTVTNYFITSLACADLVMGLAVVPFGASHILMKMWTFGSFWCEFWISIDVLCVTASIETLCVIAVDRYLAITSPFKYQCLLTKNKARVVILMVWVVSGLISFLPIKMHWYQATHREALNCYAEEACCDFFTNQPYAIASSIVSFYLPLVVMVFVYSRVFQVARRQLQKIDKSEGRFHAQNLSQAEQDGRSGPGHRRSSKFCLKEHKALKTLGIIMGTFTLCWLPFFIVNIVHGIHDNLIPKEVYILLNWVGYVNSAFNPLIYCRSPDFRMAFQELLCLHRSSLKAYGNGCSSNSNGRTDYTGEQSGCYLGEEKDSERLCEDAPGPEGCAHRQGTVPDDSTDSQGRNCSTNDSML

mice [8] = assay: Spontaneous motor activity in mice (part of Irwin tests); type: in vivo; details: oral

In the case of `CC(C)(C)NC[C@H](O)c1ccc(O)c(CO)c1` [R-salbutamol], the “stress in Irwin test” value (laboratory animals; repeated oral administration) is listed as “no stress” and the “tachycardia in livestock animals” value (livestock animals) is listed as “not causing tachycardia”.

With `CC(CCc1ccc(O)cc1)NCC(O)c1ccc(O)cc1` (centres unmarked) [RS] the “adrenergic beta-receptor stimulating activity” value (adrenergic beta-receptor) was “reduced beta-receptor activity”.

With `C[C@@H](CCc1ccc(O)cc1)NC[C@@H](O)c1ccc(O)cc1` (racemic) [SS-ractopamine] the “adrenergic beta-receptor stimulating activity” value (adrenergic beta-receptor) was “completely devoid of adrenergic beta-receptor stimulating activity” and the “airway smooth muscle relaxing activity” value [1] was “very weak activity”.

In the case of `CC(C)(C)NCC(O)c1ccc(O)c(CO)c1` (centres unmarked) [salbutamol], the “affinity for beta-3 receptors” value (beta-3 receptors) is given as “negligible affinity”.

In the case of `CC(CCc1ccc(O)cc1)NCC(O)c1ccc(O)cc1.Cl` (racemic) [racemic ractopamine, 4-hydroxy-a-[[[3-(4-hydroxyphenyl)-1-methylpropyl]amino]methyl]benzenemethanol hydrochloride], the “affinity for adrenergic beta-3 receptors” value [2] is reported as “neither racemic ractopamine nor any of the ractopamine isomers had affinity”, the CNS-mediated stress (mice [3]; mice, ongoing testing) is reported as “demonstrate CNS-mediated stress” and the “stress in Irwin test” value (laboratory animals; repeated oral administration) is reported as “produced increased stress”. For the same molecule, the “CNS-mediated stress in livestock animals” value (livestock animals; 2003) was “cause CNS-mediated stress”, the “tachycardia in livestock animals” value (livestock animals) was “significant tachycardia” and the “effect on adrenergic alpha-receptors” value [4] was “no significant effect”. The “reduction of the concentration of adrenergic beta-receptors in adipose tissue” value [5] was 50% and the “affinity for beta-3 receptors” value (beta-3 receptors) was “negligible affinity”.

For “RR-4-hydroxy-a-[[[3-(4-hydroxyphenyl)-1-methylpropyl]amino]methyl]benzenemethanol [RR-ractopamine]”, the “affinity for adrenergic beta-1 receptors compared with the racemic mixture of all four isomers” value [6] was “higher affinity”, the optical stability (Optical stability) was “optically stable” and the CNS-mediated stress (mice [3]; mouse, in vivo) was “not causing stress”. For the same molecule, the “stress in Irwin test” value (laboratory animals; mouse, in vivo, po) was “did not cause stress”, the “binding affinity relative to the racemic mixture of all four isomers” value [7] was “about 2.5 times” and the “effect on spontaneous motor activity” value (mice [8]) was “no statistically significant effects”.
